Measurements reported in ChEMBL document CHEMBL5634071, “Fluorine in anti-HIV drugs approved by FDA from 1981 to 2023” (Eur J Med Chem, 2023).
pIC50, pKd, pKi: −log10 of the molar value. One block for each compound: values may come before it.

Experiments:
[1] = molecular target: T1, DNA polymerase subunit gamma-1 (Homo sapiens, UniProt P54098); experiment: Binding affinity to human DNA polymerase gamma assessed as dissociation constant
T1 sequence (P54098 whole entry): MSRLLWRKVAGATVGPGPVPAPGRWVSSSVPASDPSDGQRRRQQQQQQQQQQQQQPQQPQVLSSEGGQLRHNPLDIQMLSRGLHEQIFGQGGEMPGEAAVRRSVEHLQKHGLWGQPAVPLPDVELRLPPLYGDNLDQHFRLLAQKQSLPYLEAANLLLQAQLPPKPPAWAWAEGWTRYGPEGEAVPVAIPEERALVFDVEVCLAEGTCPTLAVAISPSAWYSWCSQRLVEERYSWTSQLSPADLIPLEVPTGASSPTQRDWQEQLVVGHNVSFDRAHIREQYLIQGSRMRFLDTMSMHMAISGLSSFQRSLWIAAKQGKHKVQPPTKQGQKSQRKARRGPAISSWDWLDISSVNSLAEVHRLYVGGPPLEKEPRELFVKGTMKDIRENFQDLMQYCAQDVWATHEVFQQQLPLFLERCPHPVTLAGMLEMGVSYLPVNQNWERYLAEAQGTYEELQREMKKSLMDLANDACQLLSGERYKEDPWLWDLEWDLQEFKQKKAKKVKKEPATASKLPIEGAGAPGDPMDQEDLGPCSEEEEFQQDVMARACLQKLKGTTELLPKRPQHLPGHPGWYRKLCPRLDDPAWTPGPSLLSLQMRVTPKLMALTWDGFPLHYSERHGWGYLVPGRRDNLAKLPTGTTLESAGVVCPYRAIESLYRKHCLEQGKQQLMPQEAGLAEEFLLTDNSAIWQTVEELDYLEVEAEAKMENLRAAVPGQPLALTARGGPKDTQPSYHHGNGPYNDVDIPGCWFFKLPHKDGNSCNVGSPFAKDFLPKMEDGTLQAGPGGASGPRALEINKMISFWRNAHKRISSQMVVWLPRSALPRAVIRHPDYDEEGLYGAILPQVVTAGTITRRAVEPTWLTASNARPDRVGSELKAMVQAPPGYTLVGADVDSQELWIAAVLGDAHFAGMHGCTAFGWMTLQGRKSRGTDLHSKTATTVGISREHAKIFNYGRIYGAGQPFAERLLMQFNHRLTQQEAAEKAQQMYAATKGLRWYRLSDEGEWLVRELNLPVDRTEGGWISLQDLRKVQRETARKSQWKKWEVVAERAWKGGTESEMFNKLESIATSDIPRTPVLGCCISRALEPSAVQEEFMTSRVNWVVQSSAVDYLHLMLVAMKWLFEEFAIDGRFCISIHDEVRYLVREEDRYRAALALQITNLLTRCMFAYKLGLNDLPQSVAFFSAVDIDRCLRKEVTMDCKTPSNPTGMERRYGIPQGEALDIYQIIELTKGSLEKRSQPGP

[2] = molecular target: T2, DNA polymerase subunit gamma-1 (Homo sapiens) (UniProt P54098); experiment: Binding affinity to human DNA polymerase gamma assessed as polymerization rate
T2 sequence (whole entry): T1 sequence (P54098 whole entry)

[3] = molecular target: T2, DNA polymerase subunit gamma-1 (Homo sapiens); experiment: Ratio of K for biding affinity to human DNA polymerase gamma assessed as polymerization rate to Kd for binding affinity to human DNA polymerase gamma
[4] = Inhibition of HIV integrase strand transfer activity; set-up: species or system Human immunodeficiency virus
[5] = Inhibition of HIV-1 integrase by multiple well plate integration assay; set-up: species or system Human immunodeficiency virus
[6] = Inhibition of wildtype HIV Reverse transcriptase; set-up: species or system Human immunodeficiency virus
[7] = Inhibition of HIV integrase; set-up: species or system Human immunodeficiency virus
[8] = system: Human immunodeficiency virus 1; experiment: Antiviral activity against HIV-1 KELL infected in human CEM-SS cells assessed as reduction in virus-induced cytopathic effect by XTT assay; format: functional, organism-based; conditions: Human immunodeficiency virus 1, KELL
[9] = system: Human immunodeficiency virus 1; experiment: Antiviral activity against HIV-1 SK-1 infected in human CEM-SS cells assessed as reduction in virus-induced cytopathic effect by XTT assay; format: functional, organism-based; conditions: Human immunodeficiency virus 1, SK-1, CEM-SS
[10] = system: Human immunodeficiency virus 1; experiment: Antiviral activity against HIV-1 205 infected in human CEM-SS cells assessed as reduction in virus-induced cytopathic effect by XTT assay; format: functional, organism-based; conditions: Human immunodeficiency virus 1, 205, CEM-SS
[11] = system: Human immunodeficiency virus 1; experiment: Antiviral activity against HIV-1 LAV infected in human CEM-SS cells assessed as reduction in virus-induced cytopathic effect by XTT assay; format: functional, organism-based; conditions: Human immunodeficiency virus 1, LAV
[12] = system: Human immunodeficiency virus 1; experiment: Antiviral activity against HIV-1 G infected in human CEM-SS cells assessed as reduction in virus-induced cytopathic effect by XTT assay; format: functional, organism-based; conditions: Human immunodeficiency virus 1, G
[13] = system: Human immunodeficiency virus 1; experiment: Antiviral activity against HIV-1 PM16 infected in human CEM-SS cells assessed as reduction in virus-induced cytopathic effect by XTT assay; format: functional, organism-based; conditions: Human immunodeficiency virus 1, PM16, CEM-SS
[14] = system: Human immunodeficiency virus 1; experiment: Antiviral activity against HIV-1 214 infected in human CEM-SS cells assessed as reduction in virus-induced cytopathic effect by XTT assay; format: functional, organism-based; conditions: Human immunodeficiency virus 1, 214, CEM-SS
[15] = system: Human immunodeficiency virus 1; experiment: Antiviral activity against HIV-1 TP-1 infected in human CEM-SS cells assessed as reduction in virus-induced cytopathic effect by XTT assay; format: functional, organism-based; conditions: Human immunodeficiency virus 1, TP-1, CEM-SS
[16] = system: Human immunodeficiency virus 1; experiment: Antiviral activity against HIV-1 IIIB infected in human MT4 cells incubated for 7 days by ELISA; format: functional, organism-based; conditions: Human immunodeficiency virus 1, IIIB, MT4, 168 h
Cytochrome P450 2D6 = Cytochrome P450 2D6 (Homo sapiens, UniProt P10635); experiment: Inhibition of CYP2D6 (unknown origin); format: ADME
[17] = Metabolic stability in rhesus monkey hepatocytes assessed as half-life; format: ADME, cell-based, Macaca mulatta, Hepatocyte
[18] = molecular target: Human immunodeficiency virus type 1 Gag protein (Human immunodeficiency virus 1, UniProt Q77YG1); experiment: Binding affinity to HIV1 Gag assessed as dissociation constant
[19] = system: Human immunodeficiency virus 1; experiment: Antiviral activity against HIV-1 infected in human PBMC; format: functional, organism-based; conditions: Human immunodeficiency virus 1, PBMC
[20] = system: Human immunodeficiency virus; experiment: Antiviral activity against HIV; format: functional, organism-based; conditions: Human immunodeficiency virus 1
[21] = Binding affinity to HIV protease assessed as inhibition constant; set-up: species or system Human immunodeficiency virus
[22] = system: Human immunodeficiency virus 1; experiment: Antiviral activity against HIV-1 IIIB infected in human H9 cells; format: functional, organism-based; conditions: Human immunodeficiency virus 1, IIIB
[23] = system: Human immunodeficiency virus 1; experiment: Antiviral activity against HIV-1 NL4-3 infected in human MT4 cells assessed as reduction in virus induced cytopathic effect by XTT assay; format: functional, organism-based; conditions: Human immunodeficiency virus 1, NL4-3, MT4
[24] = molecular target: Human immunodeficiency virus type 1 protease (Human immunodeficiency virus 1, UniProt Q72874); experiment: Inhibition of HIV-1 protease

Chain of Cytochrome P450 2D6 (P10635 whole entry): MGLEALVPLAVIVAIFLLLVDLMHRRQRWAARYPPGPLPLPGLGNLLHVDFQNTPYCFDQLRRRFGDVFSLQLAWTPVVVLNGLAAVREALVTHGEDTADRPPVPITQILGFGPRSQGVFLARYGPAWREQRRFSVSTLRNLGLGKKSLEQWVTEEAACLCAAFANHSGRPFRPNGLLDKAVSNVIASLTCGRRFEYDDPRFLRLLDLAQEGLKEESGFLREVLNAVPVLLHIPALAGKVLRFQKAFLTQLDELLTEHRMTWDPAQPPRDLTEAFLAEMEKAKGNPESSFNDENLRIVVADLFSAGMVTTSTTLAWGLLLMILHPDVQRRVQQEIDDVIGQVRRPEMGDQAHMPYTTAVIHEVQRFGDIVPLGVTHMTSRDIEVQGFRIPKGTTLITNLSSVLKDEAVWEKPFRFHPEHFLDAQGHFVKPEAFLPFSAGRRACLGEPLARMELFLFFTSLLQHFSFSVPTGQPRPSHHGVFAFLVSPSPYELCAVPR

SMILES: Cc1cc(C)c(-n2nnnc2SCC(=O)Nc2ccc(S(N)(=O)=O)cc2Cl)c(C)c1
pIC50 [6]: 8.39

SMILES: O=S1(c2ccccc2)=NC(=S)Nc2ccccc21 (stereo not drawn)
pIC50 [8]: 6.02
pIC50 [9]: 6.02
pIC50 [10]: 6.02
pIC50 [11]: 6.02
pIC50 [12]: 6.02
pIC50 [13]: 6.02
pIC50 [14]: 6.02
pIC50 [15]: 6.02

SMILES: CCC(Cc1ccccc1)c1cc(O)c(C(CC)c2ccccc2)c(=O)o1 (stereo not drawn)
pIC50 [16]: 5.52

SMILES: Cc1nc2cnccc2n1C1CCN(CCC(c2ccccc2)c2ccccc2)CC1
pIC50 (Cytochrome P450 2D6): 7.40

SMILES: CC(C)(C#Cc1ccc(-c2ccc(Cl)c3c(NS(=O)(=O)C4CC4)nn(CC(F)F)c23)c([C@H](Cc2cc(F)cc(F)c2)NC(=O)Cn2nc(C(F)(F)F)c3c2C(F)(F)[C@@H]2C[C@H]32)n1)S(C)(=O)=O
half-life [17]: 130 h
pKd [18]: 8.62
pIC50 [19]: 9.89

SMILES: CCC[C@@]1(CCc2ccccc2)CC(O)=C([C@H](CC)c2cccc(NS(=O)(=O)c3ccc(C(F)(F)F)cn3)c2)C(=O)O1
pIC50 [20]: 7.52
pKi [21]: 8.10
pIC50 [22]: 7.52
IC90 [22]: 100 nM

SMILES: Cc1[nH]c2ccccc2c1CC(=O)N[C@@H](Cc1ccccc1)C(=O)N(C)c1ccccn1
pIC50 [23]: 6.10

SMILES: CCC[C@]1(CCc2ccccc2)CC(O)=C([C@@H](CC)c2cccc(NS(=O)(=O)c3ccc(C#N)cn3)c2)C(=O)O1
pKi [24]: 9.92
pIC50 [22]: < 6.00
IC90 [22]: > 1000 nM

The next lines start with the values.

pKd [1]: 4.89
K [2]: 0.13 s⁻¹
Ratio [3]: 0.01 µM⁻¹ s⁻¹
SMILES: Nc1ccn([C@@H]2CS[C@H](COP(=O)(O)OP(=O)(O)OP(=O)(O)O)O2)c(=O)n1 [LAMIVUDINE TRIPHOSPHATE]

pIC50 [4]: 8.62
SMILES: O=C(NCc1c(F)cc(F)cc1F)c1cn2c(c(O)c1=O)C(=O)N1[C@H]3CC[C@H](C3)O[C@@H]1C2 [BICTEGRAVIR]

pIC50 [5]: 5.64
SMILES: O=C(O)/C(O)=C/C(=O)C1C=Nc2ccc(Cl)cc21 (stereo not drawn)

pIC50 [7]: 7.70
SMILES: O=C(/C=C(\O)c1nc[nH]n1)c1ccc(Cc2ccc(F)cc2)o1 [S-1360]

pIC50 [6]: 7.28
SMILES: NS(=O)(=O)c1ccc(NC(=O)COc2cccc(Oc3ccccc3)c2)c(Cl)c1

pKd [1]: 5.96
K [2]: 44 s⁻¹
Ratio [3]: 40 µM⁻¹ s⁻¹
SMILES: Nc1ccn([C@H]2C[C@H](O)[C@@H](COP(=O)(O)OP(=O)(O)OP(=O)(O)O)O2)c(=O)n1 [DEOXYCYTIDINE TRIPHOSPHATE]

pIC50 [7]: 8.57
SMILES: C[C@@H]1CCO[C@H]2Cn3cc(C(=O)NCc4ccc(F)cc4F)c(=O)c(O)c3C(=O)N12 [DOLUTEGRAVIR]
